Read-outs that look alike come from different tables or passages of the source.
Key:
[1] = target: T1, SauLRS (leucyl-tRNA synthetase from Staphylococcus aureus) (Staphylococcus aureus, UniProt Q2FXH2); test: aaRS aminoacylation assay (ATP consumption), SauLRS; format: biochemical
T1 construct: made in house; host or cells: Escherichia coli M15
T1 sequence (Q2FXH2 1-805): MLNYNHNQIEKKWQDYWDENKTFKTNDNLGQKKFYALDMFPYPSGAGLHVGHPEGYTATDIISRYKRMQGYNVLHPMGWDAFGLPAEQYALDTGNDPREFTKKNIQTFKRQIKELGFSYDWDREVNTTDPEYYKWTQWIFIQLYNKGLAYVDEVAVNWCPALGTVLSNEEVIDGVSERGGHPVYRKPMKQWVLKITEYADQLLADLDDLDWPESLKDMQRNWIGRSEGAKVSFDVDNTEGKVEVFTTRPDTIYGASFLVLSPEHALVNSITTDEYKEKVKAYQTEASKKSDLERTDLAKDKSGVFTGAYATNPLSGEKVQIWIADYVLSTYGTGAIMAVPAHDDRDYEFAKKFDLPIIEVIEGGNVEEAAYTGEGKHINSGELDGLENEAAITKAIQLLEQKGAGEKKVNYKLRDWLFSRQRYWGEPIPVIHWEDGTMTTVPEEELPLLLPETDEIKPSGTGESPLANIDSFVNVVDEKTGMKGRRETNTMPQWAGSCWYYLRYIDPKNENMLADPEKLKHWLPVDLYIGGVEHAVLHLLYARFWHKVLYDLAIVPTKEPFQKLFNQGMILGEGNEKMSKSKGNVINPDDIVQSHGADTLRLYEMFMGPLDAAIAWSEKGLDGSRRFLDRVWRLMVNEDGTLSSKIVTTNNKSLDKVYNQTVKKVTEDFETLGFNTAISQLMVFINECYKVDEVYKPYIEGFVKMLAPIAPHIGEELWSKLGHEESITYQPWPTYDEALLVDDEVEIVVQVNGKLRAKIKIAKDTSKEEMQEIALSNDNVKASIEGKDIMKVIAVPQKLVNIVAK
Method: (§1) The compounds have been tested for antibacterial activity in vitro as aminoacyl-tRNA synthetases (aaRS) inhibitors following the following process.
(§2) Leucyl-, valyl- and isoleucyl-tRNA synthetases (LRS, VRS and IRS, respectively) from Escherichia coli (Eco) and Staphylococcus aureus (Sau).
(§3) Escherichia coli M15 cells transformed with plasmid pQE-60, or pQE-70, containing the open-reading frame sequence of one targeted aaRS were induced with 1 mM IPTG (Isopropyl β-D-1-thiogalactopyranoside) for 3 h at 37° C. Bacterial cells were harvested and lysed with 20 mM NaH2PO4 (pH 8.0), 200 mM NaCl, 10 mM imidazole and protease inhibitor cocktail (Roche). Pathogenic aaRS was purified by nickel affinity standard chromatography. Protein concentration was determined by spectrophotometry.
(§4) tRNA^Leu, tRNA^Val and tRNA^Ile from E. coli and S. aureus were transcribed in vitro for 4 h at 37° C. using T7 RNA polymerase. Transcription reaction contained 40 mM Tris-HCl (pH 8.0), 22 mM MgCl2, 1 mM spermidine, 5 mM DTT, 0.01% Triton X-100, 4 mM GTP, 4 mM ATP, 4 mM UTP, 4 mM CTP, 16 mM GMP, […] T7 RNA polymerase and 150 μg BstNI digested plasmid. Once finished, the reaction was applied on a 6% polyacrylamide-8 M urea denaturing gel to purify the transcribed tRNA and discard any impurities. Purified tRNA was quantified with Nanodrop 2000 (Thermo Scientific).
(§5) The aminoacylation reaction catalyzed by aminoacyl-tRNA synthetases (aaRS) takes place in two steps. In the first step, aaRS activates its cognate amino acid with ATP; and in the second step the activated amino acid is loaded to its corresponding tRNA. This reaction can be summarized as follows: ARS+aa+ATP=ARS-aa-AMP+PPi ARS-aa-AMP+tRNA=aa-tRNA+AMP+ARS [2] (ARS, Aminoacyl-tRNA synthetase; aa, amino acid; ARS-aa-AMP, enzyme-bound to aminoacyl-adenylate; aa-tRNA, aminoacyl-tRNA).
(§6) The activity of the pathogenic aaRSs was monitored by measuring the ATP consumption rate, since this consumption is directly proportional to the activity of the aaRS. If the tested compound, at a single point concentration of 50 μM, is inhibiting the aminoacylation reaction, there is a decrease in the ATP consumption, compared to the control reaction without compound, allowing the calculation of an inhibition ratio.
(§7) When the inhibition ratio for a given compound was above 80%, IC50 determination was performed with the same enzymatic assay (using the commercial kit Kinase RR from BioThema AB, Sweden) in the presence of serial dilutions of inhibitor. Known inhibitors of LRS, VRS or IRS were used as a positive control of the assay. The IC50 was calculated based on nonlinear regression analysis.

[2] = target: T2, EcoVRS (valyl-tRNA synthetase from Escherichia coli) (Escherichia coli, UniProt P07118); test: aaRS aminoacylation assay (ATP consumption), EcoVRS; format: biochemical; details: i.a. = inactive at a concentration below 50 uM
T2 construct: made in house; host or cells: Escherichia coli M15
Method: as §1, §2, §3, §4, §5, §6, §7

[3] = target: T3, SauVRS (valyl-tRNA synthetase from Staphylococcus aureus) (Staphylococcus aureus, UniProt Q2FXR8); test: aaRS aminoacylation assay (ATP consumption), SauVRS; format: biochemical; details: i.a. = inactive at a concentration below 50 uM
T3 construct: made in house; host or cells: Escherichia coli M15
T3 sequence (Q2FXR8 1-876): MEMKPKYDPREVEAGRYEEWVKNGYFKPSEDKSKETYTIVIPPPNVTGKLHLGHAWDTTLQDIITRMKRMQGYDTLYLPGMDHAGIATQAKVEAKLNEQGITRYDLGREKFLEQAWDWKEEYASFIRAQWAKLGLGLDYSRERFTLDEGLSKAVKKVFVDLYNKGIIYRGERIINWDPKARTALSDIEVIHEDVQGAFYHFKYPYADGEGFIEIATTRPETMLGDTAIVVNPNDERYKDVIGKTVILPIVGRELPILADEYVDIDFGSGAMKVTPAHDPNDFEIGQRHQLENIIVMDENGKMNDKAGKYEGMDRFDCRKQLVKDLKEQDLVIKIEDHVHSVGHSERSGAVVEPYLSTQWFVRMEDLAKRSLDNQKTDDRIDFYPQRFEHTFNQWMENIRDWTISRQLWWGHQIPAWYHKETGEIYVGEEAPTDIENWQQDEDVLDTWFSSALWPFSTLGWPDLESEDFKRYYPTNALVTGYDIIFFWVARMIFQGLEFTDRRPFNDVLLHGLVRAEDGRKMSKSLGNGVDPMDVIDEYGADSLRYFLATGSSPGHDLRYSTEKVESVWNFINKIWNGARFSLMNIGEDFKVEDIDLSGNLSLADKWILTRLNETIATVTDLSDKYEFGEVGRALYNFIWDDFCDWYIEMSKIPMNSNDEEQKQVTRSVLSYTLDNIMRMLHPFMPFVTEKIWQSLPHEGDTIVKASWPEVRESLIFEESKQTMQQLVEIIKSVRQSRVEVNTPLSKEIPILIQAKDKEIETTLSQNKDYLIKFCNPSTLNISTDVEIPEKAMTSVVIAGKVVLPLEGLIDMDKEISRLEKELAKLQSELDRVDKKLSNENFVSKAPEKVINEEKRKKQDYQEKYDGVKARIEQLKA
Method: as §1, §2, §3, §4, §5, §6, §7

[4] = i.a. = inactive at a concentration below 50 uM, read-out: IC50 SauLRS
[5] = i.a. = inactive at a concentration below 50 uM

T2 sequence (P07118 whole entry): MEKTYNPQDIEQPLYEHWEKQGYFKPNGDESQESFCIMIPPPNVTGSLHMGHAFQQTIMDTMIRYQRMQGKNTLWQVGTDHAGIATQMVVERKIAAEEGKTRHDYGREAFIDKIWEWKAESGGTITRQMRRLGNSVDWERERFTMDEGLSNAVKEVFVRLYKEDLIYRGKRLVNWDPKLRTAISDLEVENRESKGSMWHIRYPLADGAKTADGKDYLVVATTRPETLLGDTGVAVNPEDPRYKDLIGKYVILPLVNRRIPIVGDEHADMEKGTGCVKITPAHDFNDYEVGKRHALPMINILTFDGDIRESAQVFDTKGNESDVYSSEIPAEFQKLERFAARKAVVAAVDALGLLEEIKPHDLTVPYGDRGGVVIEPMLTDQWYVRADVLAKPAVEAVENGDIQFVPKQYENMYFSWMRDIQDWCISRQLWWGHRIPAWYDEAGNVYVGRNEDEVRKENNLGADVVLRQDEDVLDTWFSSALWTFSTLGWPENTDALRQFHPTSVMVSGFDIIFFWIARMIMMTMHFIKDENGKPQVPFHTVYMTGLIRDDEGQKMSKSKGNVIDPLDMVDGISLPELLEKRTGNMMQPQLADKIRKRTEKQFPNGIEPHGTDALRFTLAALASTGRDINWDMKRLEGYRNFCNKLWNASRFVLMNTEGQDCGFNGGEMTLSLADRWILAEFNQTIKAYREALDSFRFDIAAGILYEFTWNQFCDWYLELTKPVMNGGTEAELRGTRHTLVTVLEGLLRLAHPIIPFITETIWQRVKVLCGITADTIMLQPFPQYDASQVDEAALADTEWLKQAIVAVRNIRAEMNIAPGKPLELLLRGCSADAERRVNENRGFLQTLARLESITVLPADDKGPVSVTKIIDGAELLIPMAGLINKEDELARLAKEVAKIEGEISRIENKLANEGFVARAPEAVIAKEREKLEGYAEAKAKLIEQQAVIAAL

| Compound | melting point | IC50 [1, 4] | IC50 EcoVRS [2] | IC50 SauVRS [3] | IC50 SauLRS [1, 5] | IC50 [1] |
| --- | --- | --- | --- | --- | --- | --- |
| CC(C)C[C@H](N)C(=O)NS(=O)(=O)c1ccc2ccccc2c1 [Compound 5.14] | 215 °C (dec.) | 1000 nM | i.a | i.a | – | – |
| CC[C@H](C)[C@H](N)C(=O)NS(=O)(=O)c1ccc2ccccc2c1 [Compound 5.15] | 229.7 °C | – | i.a | i.a | i.a | – |
| COc1ccc2cc(S(=O)(=O)NC(=O)[C@@H](N)CC(C)C)ccc2c1 [Compound 5.17] | 230 to 232 °C | 2000 nM | i.a | i.a | – | – |
| CC(C)C[C@H](N)C(=O)NS(=O)(=O)c1cccc2ccncc12 [Compound 5.21] | 55 to 57 °C | 3420 nM | i.a | i.a | – | – |
| CC(C)C[C@H](N)C(=O)NS(=O)(=O)c1cccc2c1OCCC2 [Compound 5.25] | 165 °C (dec.) | 14100 nM | i.a | i.a | – | – |
| Cc1cc(-c2cccc(S(=O)(=O)NC(=O)[C@@H](N)CC3CC3)c2)nc(N)n1 [Compound 5.30] | > 192 °C (dec.) | – | i.a | i.a | i.a | – |
| Cc1cc(-c2cccc(S(=O)(=O)NC(=O)[C@@H](N)C3CC3)c2)nc(N)n1 [Compound 5.33] | 158 °C (dec.) | – | i.a | i.a | i.a | – |
| Cc1cc(-c2cccc(S(=O)(=O)NC(=O)[C@@H](N)CC(C)C)c2)nc(N)n1 [Compound 5.35, (S)-2-amino-N-((3-(2-amino-6-methylpyrimidin-4-yl)phenyl)sulfonyl)-4-methylpentanamide] | 241 to 242 °C (dec.) | 4340 nM | i.a. | i.a. | – | – |
| COc1cc(-c2cccc(S(=O)(=O)NC(=O)[C@@H](N)CC(C)C)c2)nc(N)n1 [Compound 5.36] | 87 to 88 °C (dec.) | 3000 nM | i.a. | i.a. | – | – |
| CC(C)C[C@H](N)C(=O)NS(=O)(=O)c1cccc(-c2ccnc(N)n2)c1 [Compound 5.37] | 224 to 226 °C (dec.) | 2180 nM | i.a. | i.a. | – | – |
| CC(C)C[C@H](N)C(=O)NS(=O)(=O)c1cccc(-c2nc(N)nc3nc[nH]c23)c1 [Compound 5.38] | 117 °C (dec.) | 1110 nM | i.a. | i.a. | – | – |
| Cc1cc(-c2cccc(S(=O)(=O)NC(=O)[C@@H](N)CC(C)C)c2)ncn1 [Compound 5.39] | 246 °C | 2000 nM | i.a. | i.a. | – | – |
| CC[C@H](C)[C@H](N)C(=O)NS(=O)(=O)c1cccc(-c2cc(C)nc(N)n2)c1 [Compound 5.40] | 97 °C | – | i.a. | i.a. | i.a. | – |
| CC(C)C[C@H](N)C(=O)NS(=O)(=O)c1cccc(-c2cc(-c3ccccc3)nc(N)n2)c1 [Compound 5.41] | 186 to 188 °C (dec.) | 3000 nM | i.a. | i.a. | – | – |
| CC(C)C[C@H](N)C(=O)NS(=O)(=O)c1cccc(-c2ccncc2)c1 [Compound 5.42] | 151 °C (dec.) | – | i.a. | i.a. | – | 810 nM |
| CC(C)C[C@H](N)C(=O)NS(=O)(=O)c1cccc(-c2ccnc(N)c2)c1 [Compound 5.43] | 141 °C (dec.) | 330 nM | i.a. | i.a. | – | – |
| CC(C)C[C@H](N)C(=O)NS(=O)(=O)c1cccc(-c2cccc(N)n2)c1 [Compound 5.44] | 148 °C (dec.) | 1640 nM | i.a. | i.a. | – | – |
| CC(C)C[C@H](N)C(=O)NS(=O)(=O)c1cccc(-c2cc(N)nc(N)n2)c1 [Compound 5.45] | 234 °C (dec.) | 720 nM | i.a. | i.a. | – | – |
| CC(C)C[C@H](N)C(=O)NS(=O)(=O)c1cccc(-c2ccnc(Cl)n2)c1 [Compound 5.49] | 231 to 238 °C (dec.) | 6230 nM | i.a. | i.a. | – | – |
| CC(C)C[C@H](N)C(=O)NS(=O)(=O)c1cccc(-c2ccnc(O)n2)c1 [Compound 5.50] | 191 to 221 °C (dec.) | 13900 nM | i.a. | i.a. | – | – |

Reference: US11072581B2, “N-acyl-arylsulfonamide derivatives as aminoacyl-tRNA synthetase inhibitors” (Oxford Drug Design Limited, priority 2015, dated 2021)
